The results in this text go back to US11045457B2, “Piperidinyl-3-(aryloxy)propanamides and propanoates” (priority 2018, dated 2021).

T1 sequence (P31391 whole entry): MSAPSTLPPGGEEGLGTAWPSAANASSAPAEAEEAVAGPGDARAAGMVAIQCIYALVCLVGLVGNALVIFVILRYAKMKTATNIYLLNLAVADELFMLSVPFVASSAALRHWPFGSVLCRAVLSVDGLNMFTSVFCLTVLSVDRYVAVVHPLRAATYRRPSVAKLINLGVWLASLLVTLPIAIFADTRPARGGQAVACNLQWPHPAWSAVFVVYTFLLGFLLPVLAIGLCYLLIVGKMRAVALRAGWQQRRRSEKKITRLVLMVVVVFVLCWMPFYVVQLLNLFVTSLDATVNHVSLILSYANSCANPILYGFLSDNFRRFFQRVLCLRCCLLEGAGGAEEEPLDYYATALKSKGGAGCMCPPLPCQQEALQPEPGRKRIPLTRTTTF

One test addresses T1, SSTR4 (Homo sapiens (Human), UniProt P31391). The test is described as follows: SSTR4 I-125 somatostatin competition binding assay (membranes from CHO-K1 cells overexpressing SSTR4). Particulars: competition with I-125 labeled somatostatin.
As to `Cc1cccnc1OCC(F)(F)C(=O)N[C@H]1CCNC[C@@H]1F` [Example 201, 2,2-difluoro-N-((3S,4S)-3-fluoropiperidin-4-yl)-3-((3-methylpyridin-2-yl)oxy)propanamide], the “SSTR4 Binding pIC50” value is 6.7. For the molecule `C[C@H]1C[C@@H](NC(=O)C(C)(C)COc2ncccc2C(F)(F)F)CCN1C` [Example 178, N-((2S,4S)-1,2-dimethylpiperidin-4-yl)-2,2-dimethyl-3-((3-(trifluoromethyl)pyridin-2-yl)oxy)propanamide], the “SSTR4 Binding pIC50” value is listed as 6.5.

For another test, the target named is T1, SSTR4. The test is described as follows: Inhibition of forskolin stimulated cAMP in CHO-K1 cells overexpressing SSTR4. It is filed as cell-based.
Conditions: not given
The essentials: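 Read-out is a HTRF LANCE Ultra cAMP competition using Eu-labelled streptavidin and biotin-cAMP, incubated 60 min at room temperature. It followed a 30 min room-temperature exposure of Kreb's Ringer-washed cells to compound plus forskolin. Potency is expressed as pEC50.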
Turning to `Cc1cccnc1OCC(F)(F)C(=O)N[C@H]1CCNC[C@@H]1F` [Example 201, 2,2-difluoro-N-((3S,4S)-3-fluoropiperidin-4-yl)-3-((3-methylpyridin-2-yl)oxy)propanamide], the “SSTR4 Activity pEC50” value was 7.5.

In the case of `Cc1cnc(OCC(C)(C)C(=O)NC2CCN(C)CC2)c(C(F)(F)F)c1` [Example 101, 2,2-dimethyl-3-((5-methyl-3-(trifluoromethyl)pyridin-2-yl)oxy)-N-(1-methylpiperidin-4-yl)propanamide], the “SSTR4 Activity pEC50” value turned out to be 7.3.

For `Cc1cccnc1OCC(C)(C)C(=O)NC1CCN(C)C1` (stereo not drawn) [Example 2, 2,2-dimethyl-3-((3-methylpyridin-2-yl)oxy)-N-(1-methylpyrrolidin-3-yl)propanamide], the “SSTR4 Activity pEC50” value is 6.3. The same measure, in the same setting: the same measure for `Cc1cc(Cl)cnc1OCC(C)(C)C(=O)NC1CCN(C)CC1` [Example 48, 3-((5-chloro-3-methylpyridin-2-yl)oxy)-2,2-dimethyl-N-(1-methylpiperidin-4-yl)propanamide]: 6.8. As for `CN1CCC(NC(=O)C(C)(C)COc2ncc(Br)cc2C(F)(F)F)CC1` [Example 100, 3-((5-bromo-3-(trifluoromethyl)pyridin-2-yl)oxy)-2,2-dimethyl-N-(1-methylpiperidin-4-yl)propanamide], the “SSTR4 Activity pEC50” value was found to be 7.2. As to `CN1CC[C@@H](NC(=O)C(C)(C)COc2ncccc2OC(F)(F)F)[C@H](c2ccccc2)C1` (relative stereo) [Example 167, 2,2-dimethyl-N-(trans-1-methyl-3-phenylpiperidin-4-yl)-3-((3-(trifluoromethoxy)pyridin-2-yl)oxy)propanamide], the “SSTR4 Activity pEC50” value was determined as 6.8. Take `Cc1ccnc(OCC(C)(C)C(=O)NC2CCN(C)CC2)c1C` [Example 88, 3-((3,4-dimethylpyridin-2-yl)oxy)-2,2-dimethyl-N-(1-methylpiperidin-4-yl)propanamide]: the “SSTR4 Activity pEC50” value is reported as 6.6. With `CN1CCC(NC(=O)C(C)(C)COc2ncccc2F)CC1` [Example 39, 3-((3-fluoropyridin-2-yl)oxy)-2,2-dimethyl-N-(1-methylpiperidin-4-yl)propanamide], the “SSTR4 Activity pEC50” value came out at 6.3. `CN1CCC(NC(=O)C(C)(C)COc2ncc(F)cc2F)CC1` [Example 40, 3-((3,5-difluoropyridin-2-yl)oxy)-2,2-dimethyl-N-(1-methylpiperidin-4-yl)propanamide]: the “SSTR4 Activity pEC50” value is reported as 6.1. On to `CN1CCC(NC(=O)C(C)(C)COc2ccccc2F)CC1` [Example 195, 3-(2-fluorophenoxy)-2,2-dimethyl-N-(1-methylpiperidin-4-yl)propanamide], for which the “SSTR4 Activity pEC50” value stood at 6.5. Take `CN1CCC(NC(=O)C(C)(C)COc2ncccc2C#N)CC1` [Example 3, 3-((3-cyanopyridin-2-yl)oxy)-2,2-dimethyl-N-(1-methylpiperidin-4-yl)propanamide]: the “SSTR4 Activity pEC50” value amounted to 5.8. Take `CCOc1cccnc1OCC(C)(C)C(=O)NC1CCN(C)CC1` [Example 54, 3-((3-ethoxypyridin-2-yl)oxy)-2,2-dimethyl-N-(1-methylpiperidin-4-yl)propanamide]: the “SSTR4 Activity pEC50” value is 7.0. Consider `CN1CCC(NC(=O)C2(COc3ccccc3Cl)CC2)CC1` [Example 81, 1-((2-chlorophenoxy)methyl)-N-(1-methylpiperidin-4-yl)cyclopropane-1-carboxamide], for which the “SSTR4 Activity pEC50” value is given as 6.3.

In the case of `CN1C[C@@H](NC(=O)C(C)(C)COc2ncccc2C(F)(F)F)C2(CC2)C1` [Example 173, (S)-2,2-dimethyl-N-(5-methyl-5-azaspiro[2.4]heptan-7-yl)-3-((3-(trifluoromethyl)pyridin-2-yl)oxy)propanamide], the “SSTR4 Activity pEC50” value came to 6.3.

Consider `Cc1cc(C#N)cnc1OCC(C)(C)C(=O)NC1CCN(C)CC1` [Example 51, 3-((5-cyano-3-methylpyridin-2-yl)oxy)-2,2-dimethyl-N-(1-methylpiperidin-4-yl)propanamide], for which the “SSTR4 Activity pEC50” value is recorded as 6.1. As for `Cc1cnc(OCC(C)(C)C(=O)N[C@H]2CN(C)CC23CC3)c(C)c1` [Example 154, (R)-3-((3,5-dimethylpyridin-2-yl)oxy)-2,2-dimethyl-N-(5-methyl-5-azaspiro[2.4]heptan-7-yl)propanamide], the “SSTR4 Activity pEC50” value turned out to be 7.4. Same read-out and setting: the same measure for `CN1CCC(NC(=O)C(C)(C)COc2ccc(F)cc2)CC1` [Example 204, 3-(4-fluorophenoxy)-2,2-dimethyl-N-(1-methylpiperidin-4-yl)propanamide]: 6.4. As for `C[C@@H]1C[C@@H](NC(=O)C(C)(C)COc2ncccc2C(F)(F)F)CCN1C` [Example 177, N-((2R,4S)-1,2-dimethylpiperidin-4-yl)-2,2-dimethyl-3-((3-(trifluoromethyl)pyridin-2-yl)oxy)propanamide], the “SSTR4 Activity pEC50” value is 6.9. Consider `CN1CCC(NC(=O)C(C)(C)COc2ccccc2)CC1` [Example 74, 2,2-dimethyl-N-(1-methylpiperidin-4-yl)-3-phenoxypropanamide], for which the “SSTR4 Activity pEC50” value is on record as 6.4.

Still in this test, the particulars now being: read-out: SSTR4 Activity pEC50 (converted).
Turning to `C[C@@H]1C[C@H](NC(=O)C(C)(C)COc2ncccc2C(F)(F)F)CN1C` (relative stereo) [Example 134, cis-N-(1,5-dimethylpyrrolidin-3-yl)-2,2-dimethyl-3-((3-(trifluoromethyl)pyridin-2-yl)oxy)propanamide], the EC50 was 2 µM. On the same count and under the same terms, the same measure for `CC[C@@H]1CN(C)CC[C@H]1NC(=O)C(C)(C)COc1ncccc1C(F)(F)F` (single isomer, unassigned) [Example 110, trans-N-(3-ethyl-1-methylpiperidin-4-yl)-2,2-dimethyl-3-((3-(trifluoromethyl)pyridin-2-yl)oxy)propanamide]: 0.001 µM. On the same count and under the same terms, the same measure for `CCc1ccccc1OCC(C)(C)C(=O)N[C@@H]1CN(C)C[C@H]1OC` (relative stereo) [Example 96, trans-3-(2-ethylphenoxy)-N-(4-methoxy-1-methylpyrrolidin-3-yl)-2,2-dimethylpropanamide]: 0.2 µM; for `Cc1ccc([C@@H]2CN(C)C[C@H]2NC(=O)C(C)(C)COc2ncccc2C2CC2)cn1` (relative stereo) [Example 61, trans-3-((3-cyclopropylpyridin-2-yl)oxy)-2,2-dimethyl-N-(1-methyl-4-(6-methylpyridin-3-yl)pyrrolidin-3-yl)propanamide]: 0.0631 µM; for `C[C@H]1C[C@H](NC(=O)C(C)(C)COc2ncccc2OC(F)(F)F)CCN1C` (relative stereo) [Example 135, trans-N-(1,2-dimethylpiperidin-4-yl)-2,2-dimethyl-3-((3-(trifluoromethoxy)pyridin-2-yl)oxy)propanamide]: 0.0251 µM. `CN1CC[C@@H](NC(=O)C(C)(C)COc2ncccc2OC(F)(F)F)[C@H](c2cnn(C(F)F)c2)C1` (relative stereo) [Example 126, trans-N-(3-(1-(difluoromethyl)-1H-pyrazol-4-yl)-1-methylpiperidin-4-yl)-2,2-dimethyl-3-((3-(trifluoromethoxy)pyridin-2-yl)oxy)propanamide]: the EC50 is 0.00158 µM.
